Results: US20050165102A1, “Compositions and dosage forms for enhanced absorption” (priority 2003, published 2005)
Structures can show the parent of a compound that is named as a salt. Where two headings read alike, the source gives them in different places.

Experiments:
[1] = for Bioavailability: relative to iv gabapentin; for gabapentin plasma concentration rat1: 0 h
[2] = Flushed ligated colonic model in rats (gabapentin); conditions: for gabapentin plasma concentration Rat1: colonic intubation 10 mg/rat
Source text: The colon was flushed of fecal materials.
Each segment was observed macroscopically for irritation and any abnormality noted.

[3] = iv 1 mg/rat, 0 h
[4] = rat, in vivo, po, 40 mg/kg

CCCCCCCCCCCCOS(=O)(=O)O.NCC1(CC(=O)O)CCCCC1 [Gabapentin lauryl sulfate]
percent bioavailability versus neat drug ([1]; duodenal, dosage of 20 mg (FIG. 19C)): higher bioavailability than did the neat drug

NCC1(CC(=O)O)CCCCC1 [Gabapentin, 1-(aminomethyl)cyclohexaneacetic acid, reference compound]
gabapentin plasma concentration Rat1 ([2]; 0 h): 0 ng/mL | gabapentin plasma concentration Rat1 ([2]; 1 h): 189 ng/mL | Bioavailability ([2]; colonic, percent of intravenous administration): 4.9% | macroscopic observation of colonic mucosa for irritation ([2]; excised colonic segments after 4 hour test period): no histopathological change visible to the naked eye | gabapentin plasma concentration Rat1 [3]: 0 ng/mL | Bioavailability ([1]; duodenal 5 mg/rat (14.8 / 14.0 mg/kg)): 62.5 ± 9.4% | Bioavailability ([1]; duodenal 10 mg/rat (30.6 / 29.1 mg/kg)): 44.2 ± 10.1% | Bioavailability ([1]; duodenal 20 mg/rat (59.8 / 58.1 mg/kg)): 26.2 ± 8.2% | gabapentin plasma concentration rat1 ([1]; duodenal dose 5 mg/rat): 0 ng/mL | gabapentin plasma concentration rat1 ([1]; duodenal dose 10 mg/rat): 0 ng/mL | gabapentin plasma concentration rat1 ([1]; duodenal dose 20 mg/rat): 0 ng/mL

CN(C)C(=N)N=C(N)N [Metformin HCl, metformin hydrochloride, reference compound]
time of plasma concentration maximum after treatment [4]: about 1 hour

CCCCCCCCCCCC(=O)O.CN(C)C(=N)N=C(N)N [Metformin laurate]
time of plasma concentration maximum after treatment [4]: about 1 hour
